Marks after values point to notes of the source that are not given here.
Tested on: human sebocytes
Assay: Inhibition of sebocyte lipogenesis (14C-acetate label remaining in sebocytes)
Format: cell-based
Conditions: for IC50: read-out: IC 50 (concentration which provides a 50% sebum suppression relative to the control); for IC50 / radioactive label remaining in the sebocytes, % of Control: 20 hour incubation, 96 well plate; for radioactive label remaining in the sebocytes, % of Control: lower = greater inhibition of lipogenesis; for inhibition of lipogenesis, in words: all tested concentrations (1, 10, 100 μM)
Method: Secondary cultures of human sebocytes obtained from an adult […] were grown in 96-well tissue culture plates (Packard Co.; Meriden, Conn.) until confluent. Sebocyte growth medium consisted of Clonetics Keratinocyte Basal Medium (KBM) supplemented with 14 μg/ml bovine pituitary extract, 0.4 μg/ml hydrocortisone, 5 μg/ml insulin, 10 ng/ml epidermal growth factor, 1.2×10^−10 M cholera toxin, 100 units/ml penicillin, and 100 μg/ml streptomycin. All cultures were incubated at 37° C. in the presence of 7.5% CO2. Medium was changed three times per week.
On the day of experimentation, the growth medium was removed and the sebocytes washed three times with sterile Dulbecco's Modified Eagle Medium (DMEM; phenol red free). Fresh DMEM was added to each sample (duplicates, triplicates, or quadruplicates depending on the experiment) with 5 μL of test agent solubilized in ethanol or sterile, distilled water. Controls consisted of addition of ethanol alone or phenol red. Phenol Red, a known sebum suppressive agent, was employed as a positive control.
Each plate was returned to the incubator for 20 hours followed by the addition of ^14C-acetate buffer (5 mM final concentration, 56 mCi/mmol specific activity). Sebocytes were returned to the incubator for four hours after which each culture was rinsed three times with phosphate buffered saline to remove unbound label. Radioactive label remaining in the sebocytes was harvested and counted using a TopCount-NXT brand scintillation counter (Packard Co., Meriden, Conn.).
The results that were obtained, expressed in terms of amount of radioactive label remaining in the sebocytes as a percent of control, are summarized in Table 2. A lower radioactive label, i.e. a lower % of control, indicates a greater inhibition of sebocyte lipogenesis.
The experiments were conducted using the procedure set forth in the Example 3 above, with the concentrations of the compounds varied, in order to determine the concentration for each compound tested which provide a 50% sebum suppression.

## C13 isoalcohol propionitrile [Compound 2]
  IC50: > 100 µM

## C13 isoalcohol oxypropyl amine [Compound 3]
  IC50: ~100 µM

## C13 isoalcohol [Compound 4]
  IC50: 100 µM

## C13 isoalcohol glycerol [Compound 5]
  IC50: > 100 µM

## O=S1(=O)OC(c2ccc(O)cc2)(c2ccc(O)cc2)c2ccccc21 [Phenol Red]
100 μM
  radioactive label remaining in the sebocytes, % of Control: 46.3* % of Control

## tridecylcarboxymethylate [TDCM]
1 μM
  radioactive label remaining in the sebocytes, % of Control: 84.8* % of Control
10 μM
  radioactive label remaining in the sebocytes, % of Control: 43.4* % of Control
100 μM
  radioactive label remaining in the sebocytes, % of Control: 22.8* % of Control
  inhibition of lipogenesis, in words: enhanced inhibition of lipogenesis at all tested concentrations

## iso-tridecyloxy propionic acid [Compound 1]
1 μM
  radioactive label remaining in the sebocytes, % of Control: 48.7* % of Control
10 μM
  radioactive label remaining in the sebocytes, % of Control: 34.6* % of Control
100 μM
  radioactive label remaining in the sebocytes, % of Control: 11.9* % of Control
  inhibition of lipogenesis, in words: enhanced inhibition of lipogenesis at all tested concentrations
  IC50: 5 µM
Comparison of Table 2 data
  effectiveness in inhibition of lipogenesis relative to TDCM: almost twice as effective as TDCM
From IC50 of Table 3
  activity as sebum suppressant relative to the branched alcohol from which it is derived: about 20 times

Reference: US6916851B2, “Skin care cosmetic methods of sebum control using carboxyalkylates of branched alcohols and/or alkoxylates thereof” (Unilever Home & Personal Care USA, a division of Conopco, …, priority 2002, dated 2005)
